From patent publication US20230044304A1, “Nitric oxide generation, dilution, analysis, and topical application compositions, systems, apparatus and methods” (SYK Technologies LLC, priority 2010, published 2023)
“Also recorded” adds a separate entry of the source.

What was measured:
[1] = test system: bacteria on a surface, such as a person's skin; experiment: Nitric oxide dose required to kill bacteria on a surface
[2] = test system: bacteria on skin of hands; experiment: Hand exposed to nitric oxide gas in a bag versus DIAL antibacterial soap, zone dilution plating; assay type: in vivo, human
Excerpt: An experiment 46 used to determine the anti-microbial effectiveness of nitric oxide is illustrated in FIG. 72. In the experiment, five volunteers were selected 48. From a first hand of each volunteer, a technician using sterile gloves collected 50 a sample. This was accomplished by rubbing the back of the volunteer's hand with a sterile cotton collection swab for ten seconds. The swab was then applied 52 to a nutrient agar petri dish using the five corner or zone dilution method.
The five corner or zone dilution method involves mechanically diluting bacteria on a streak (blood agar) plate by sequentially spreading the bacteria across the plate in each of five zones. As the concentration of bacteria increases so do the number of zones containing bacteria. Bacteria on agar plate become visible as distinct circular colonies. Each colony represents an individual cell which has divided repeatedly to form a patch. The number of bacteria can be estimated by counting the number of patches or how far the bacteria is diluted by streaking it on the agar plate through the five zones.
After the sample was collected 50, the first hand was cleaned 54 using nitric oxide. This was done by placing the hand of the volunteer into a one-gallon plastic freezer bag. The bag was then inflated with nitric oxide through tubing attached to a portable nitric oxide generator. […]

Question: With `[N]=O` [nitric oxide] as the compound, how does the “dose required to kill bacteria on a surface” value [1] read?
Answer: ≥ 320 ppm

Question: And the “bacterial colony count compared with washing with antibacterial soap” value ([2]; 1,000 ppm nitric oxide for fifteen minutes versus DIAL antibacterial soap for 2 minutes, five volunteers)?
Answer: superior to soaps; also recorded: lower bacterial colony count

Question: What about the “colony counts of bacteria exposed to nitric oxide” value ([2]; experiments by applicant on healthy skin) of the same compound?
Answer: substantial reductions in colony counts
